According to patent US9877980B2, “Method and composition for treatment or prevention of type 2 diabetes and hyperlipidemia” (Chun-Ching Shih, priority 2016, dated 2018):
Marks after values point to notes of the source that are not given here.

Columns and labels:
[1] = system: AMPK; experiment: Western blotting of phospho-AMPK/total AMPK in skeletal muscle and liver; assay type: in vivo; settings: HFD mice, 4 weeks, vs HF group
Description: (§1) The following experiment was performed and approved by the guidelines of the Institutional Animal Care and Use Committee of Central Taiwan University of Science and Technology. The 4-week old male C57BL/6J mice (total amount n=63) were purchased from the National Laboratory Animal Breeding and Research Center (Taipei, Taiwan). After acclimatization for one week, all of the mice were divided randomly into the control (CON) group and the high-fat diet (HFD) group. For the following 12 weeks, the CON group (n=9) was kept on a low-fat diet (Diet 12450B, Research Diets, Inc., New Brunswick, N.J., USA), while the HFD group (n=54) was exposed to a high-fat diet (Diet 12451, Research Diets, New Brunswick, N.J., USA). The low-fat diet was composed of protein 20%, carbohydrate 70% and fat 10%, whereas the high-fat diet was composed of protein 20%, carbohydrate 35%, and fat 45% (of total energy, % kcal). After HFD exposure for 8 weeks, the HFD group was further randomly subdivided into 6 groups (n=9 per group) to receive different treatments by oral gavage once daily for four weeks and on HFD. […] The HF+B1, HF+B2, and […] are collectively termed BB-treated HFD groups in the following examples. The CON mice were administered vehicle. After dosing for 4 weeks, the mice were given no food at night and sacrificed after 12 h of fasting on the next day. All of the individual tissues were collected and weighed, and portions were instantly frozen using liquid nitrogen and kept at −80° C. for subsequent target gene analysis. Blood samples (0.8 mL) were collected for analysis of blood parameters.
Protein extractions and immunoblots for the determination of phospho-AMPK (Thr^172) and phospho-Akt (Ser^473) proteins in skeletal muscle and liver tissue of mice (n=9) were carried out. About 0.1 g of liver tissue and skeletal muscle was used for the homogenate samples. Samples were powdered under liquid nitrogen and homogenized for 20 seconds in 500 μL buffer containing 20 mM Tris-HCL1 (pH 7.4 at 4° C.), 2% SDS, 5 mM EDTA, 5 mM EGTA, 1 mM DTT, 100 mM NaF, 2 mM sodium vanadate, 0.5 mM phenylmethylsulfonyl fluoride, 10 μg/mL leupeptin, and […] pepstatin. The protein concentration in supernatant was determined with a BCA protein assay kit (Thermo Scientific, Rockford, Ill., USA). 20 μg of proteins were separated by electrophoresis on a polyacrylamide gel 12% (SDS-PAGE) and transferred to a nitrocellulose membrane. The membranes were blocked with 5% slim milk in Tris-buffered saline (TBS)(Amersham BioSciences, Uppsala, Sweden) containing 0.05% Tween-20 (Bio Rad, CA, USA) and incubated overnight at 4° C. with anti-phospho-AMPK (Abcam Inc., Cambridge, Mass., USA) and anti-phospho-Akt (Cell signaling Technology, Inc., Danvers, Mass., USA) rabbit polyclonal antibodies at 1:200 dilution. Subsequently, the membranes were washed three times with TBS containing 0.05% Tween-20 and incubated with secondary antibody anti-rabbit (1:1000) (Jackson ImmunoResearch Laboratories, Inc., PA, USA) for 1 hour. Immunoreactive bands were detected with ECL reagent kit (GE Healthcare BioSciences, Buckinghamshire, UK). The intensity of blotting was analyzed using Alpha Easy FC software (Alpha Innotech Corporation, Randburg, South Africa). Structural proteins GAPDH (Santa Cruz Biotechnology, CA, USA) in the samples were used as the loading control.

[2] = system: C57BL/6J mice on high-fat diet (HFD); experiment: Blood parameters (glucose, insulin, TG, FFA, TC, leptin, adiponectin) in HFD mice; assay type: in vivo; settings: for Blood parameters Adiponectin / Blood parameters FFA / Blood parameters Leptin / Blood parameters TC / blood level of glucose / blood level of insulin: 4 weeks
Description: as §1, with “For the following 12 weeks, the CON group (n=9) was kept on a low-fat diet (Diet 12450B, Research Diets, Inc., New Brunswick, N.J., USA), while the HFD group (n=54) was exposed to a high-fat diet (Diet 12451, Research Diets, New Brunswick, N.J., USA). The low-fat diet was composed of protein 20%, carbohydrate 70% and fat 10%, whereas the high-fat diet was composed of protein 20%, carbohydrate 35%, and fat 45% (of total energy, % kcal).” left out
A portion of the blood samples obtained from the retro-orbital sinus of fasted mice were immediately used to measure blood glucose levels using Sidekick glucose analyzer (YSI 1500, YSI Incorporated, Yellow Springs, USA) according to the glucose oxidase method. Heparin (30 units/mL, Sigma) was added into other portions of the blood samples. […] Concentrations of plasma triglycerides (TG), total cholesterol (TC), and free fatty acids (FFA) were determined using commercial assay kits according to the manufacturer's instructions (Triglycerides-E test, Cholesterol-E test, and FFA-C test, Wako Pure Chemical, Osaka, Japan). Plasma insulin, leptin, and adiponectin levels were assessed using commercial assay kits according to the manufacturer's instructions (mouse insulin ELISA kit, Mercodia, Uppsala, Sweden; mouse leptin ELISA kit, Morinaga, Yokohama, Japan; Mouse Adiponectin ELISA kit, Crystal Chem International, Downers Grove, Ill., USA).

[3] = 10 mg/kg/day oral gavage, vs HF group
[4] = 20 mg/kg/day oral gavage, vs HF group
[5] = 40 mg/kg/day oral gavage, vs HF group

OCC1O[C@@H](O[C@@H]2Cc3c(O)cc(O)cc3O[C@@H]2c2ccc(O)c(O)c2)C(O)C(O)[C@@H]1O (single isomer, unassigned; (-)) [compound of formula I, (−)-epicatechin-3-O-β-D-allopyranoside]
expression level of phospho-AMPK/total AMPK ([1]; liver, 10 mg/kg/day oral gavage): enhanced | expression level of phospho-AMPK/total AMPK ([1]; liver, 20 mg/kg/day oral gavage): enhanced | expression level of phospho-AMPK/total AMPK ([1]; liver, 40 mg/kg/day oral gavage): enhanced | expression level of phospho-AMPK/total AMPK ([1]; skeletal muscle, 10 mg/kg/day oral gavage): enhanced | expression level of phospho-AMPK/total AMPK ([1]; skeletal muscle, 20 mg/kg/day oral gavage): enhanced | expression level of phospho-AMPK/total AMPK ([1]; skeletal muscle, 40 mg/kg/day oral gavage): enhanced | Blood parameters Adiponectin ([2]; 10 mg/kg/day oral gavage): 2.895 ± 0.010^f μg/mL | Blood parameters FFA ([2]; 10 mg/kg/day oral gavage): 1.11 ± 0.13^d mEq/L | Blood parameters Leptin ([2]; 10 mg/kg/day oral gavage): 1.662 ± 0.009^f ng/mL | Blood parameters TC ([2]; 10 mg/kg/day oral gavage): 153.5 ± 7.7 mg/dL | blood level of glucose [2, 3]: markedly lowered | blood level of insulin [2, 3]: markedly lowered | Blood parameters Adiponectin ([2]; 20 mg/kg/day oral gavage): 3.277 ± 0.052^f μg/mL | Blood parameters FFA ([2]; 20 mg/kg/day oral gavage): 0.95 ± 0.04^f mEq/L | Blood parameters Leptin ([2]; 20 mg/kg/day oral gavage): 1.372 ± 0.029^f ng/mL | Blood parameters TC ([2]; 20 mg/kg/day oral gavage): 144.1 ± 4.0 mg/dL | blood level of glucose [2, 4]: markedly lowered | blood level of insulin [2, 4]: markedly lowered | Blood parameters Adiponectin ([2]; 40 mg/kg/day oral gavage): 3.628 ± 0.034^f μg/mL | Blood parameters FFA ([2]; 40 mg/kg/day oral gavage): 0.86 ± 0.09^f mEq/L | Blood parameters Leptin ([2]; 40 mg/kg/day oral gavage): 1.321 ± 0.008^f ng/mL | Blood parameters TC ([2]; 40 mg/kg/day oral gavage): 142.9 ± 6.6 mg/dL | blood level of glucose [2, 5]: markedly lowered | blood level of insulin [2, 5]: markedly lowered | circulating TG levels ([2]; oral gavage 4 weeks (formula I 10, 20, 40; Rosi 10; Feno 250 mg/kg/day), vs HF group): decreased
